The subject of assay [1] is T1, SPPL2a.
T1 construct: endogenous SPPL2a cleavage of CD74 in a murine B-Cell line; host or cells: A20 mouse B lymphocyte cells
Put plainly: Endogenous CD74 NTF P8 turnover in non-overexpressing A20 cells (Western blot, In-1 antibody). The format is cell-based, mouse. The procedure: (§1) Untagged versions of all enzymes were also made and ligated into the pAG3 vector. Substrates (Fig 1) were designed as follows: FLAG-BRI2_1-81- Aβ1-25/K16A (FBA). The K16A mutation was incorporated to prevent potential α-secretase cleavage that would preclude ELISA based detection of the released COOH-terminal fragment. The substrate DNA was cloned into the expression vector pcDNA6. Constructs were confirmed by DNA sequencing. The overexpression of substrates was performed by transiently transfecting human embryonic kidney (HEK 293T) cells with or without SPP/SPPL vectors. Cells were grown in DMEM media supplemented with Hyclone 10% fetal bovine serum (GE, Logan, Utah, USA) and 1% penicillin/streptomycin (Life Technologies, Grand Island, NY, USA). Briefly, 2.7 μg DNA was applied to a 75% confluent 6 well plate (Corning, Tewksbury, MA, USA) using the polycation polyethylenimine (PEI) transfection method. Inhibitor testing experiments were conducted in 48 well plates with appropriately adjusted amounts of DNA and PEI and incubated 12–16 hours, after which the growth medium was replaced with fresh medium. DMSO (Sigma, St. Louis, MO, USA) and GSIs were added at the appropriate concentration. The GSIs, L685,458 and Compound W were purchased from Tocris (Tocris, Bristol, UK). (Z-LL)2 ketone, Compound E, DAPT, GSI II were purchased from Calbiochem (Merck Millipore, Billerica, MA, USA). LY-411,575 was synthesized by A. Fauq at the Mayo Clinic Chemical Core. Twenty-four hours later, the medium was collected for assay by ELISA and MS. A20 cells (TIB-208) (ATCC, Manassas, VA, USA) were cultured in RPMI-1640 medium (ATCC) supplied with 10% fetal bovine serum, 1% penicillin/streptomycin and 0.05 mM 2-mercaptoethanol (Life Technologies). At the density of 5x10^5 cells/ml, A20 cells were spun down at 1000 g for 2 min and resuspended in fresh medium supplied with DMSO or GSIs and incubated for 16 hr.
(§2) Sandwich ELISAs used for Aβ detection were performed as previously described. Briefly, Aβ and Aβ adducts with substrate TMD in conditioned media was captured with Ab5 antibody (human Aβ1–16 specific) and detected with horseradish peroxidase mAb 4G8 (Covance, Princeton, NJ, USA). Synthetic Aβ1–40 was used as standard. All ELISAs were developed with TMB substrate (KPL, Gaithersburg, Maryland, USA). Bis-Tris precast gels (Biorad, Hercules, CA, USA) were used for all SDS-PAGE. Monoclonal anti-FLAG M2 antibody (Sigma) and Aβ1–16 antibody 6E10 (Covance) were used for Western blotting. Antisera against SPPL2a, SPPL2b, hSPP and pSPP were generated as previously described and were used at dilution of 1:1000 for Western blotting. Anti-CD74 In-1 antibody (BD Bioscience, San Jose, CA, USA) was used for A20 cell lysate Western blotting at dilution of 1:1000.
(In western blotting, separated proteins are transferred to a membrane and probed.)

Assay [2] concerns the target T2, hSPP (Homo sapiens, UniProt Q8TCT9).
T2 construct: expressed in transfected cells; host or cells: HEK 293T
T2 sequence (Q8TCT9 1-377): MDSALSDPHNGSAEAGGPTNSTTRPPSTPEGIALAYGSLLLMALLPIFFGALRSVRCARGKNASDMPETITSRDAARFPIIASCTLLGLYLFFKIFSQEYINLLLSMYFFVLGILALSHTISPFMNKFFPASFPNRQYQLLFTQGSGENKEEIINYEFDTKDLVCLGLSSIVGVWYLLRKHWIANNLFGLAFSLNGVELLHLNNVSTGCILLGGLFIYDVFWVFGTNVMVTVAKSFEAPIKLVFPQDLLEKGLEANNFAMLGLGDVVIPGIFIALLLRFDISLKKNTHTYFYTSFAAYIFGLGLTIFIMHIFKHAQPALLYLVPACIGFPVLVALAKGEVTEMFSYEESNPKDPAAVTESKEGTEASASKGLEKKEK
Put plainly: FBA/hSPP co-transfected HEK 293T cell cleavage assay (Aβ ELISA, Western blot, IP/MS). It is filed as cell-based. Conditions: for IC50: HEK cells, 24 h, xAβ1-25/K16A by Aβ ELISA, mean ± standard error, read-out: IC50 on FBA/SPPL co-transfected cells.
From the text: as §1, with “Expression constructs in pcDNA6 for COOH-terminal FLAG (DYKDDDDK) and strep (WSHPQFEK) tagged SPPL2a, SPPL2b, hSPP and pSPP were generated as previously described. Untagged” for “Untagged”
as §2
(§3) Immunoprecipitation and mass spectrometry of xAβ1–25 in conditioned media were performed as previously described. In this study, 10 ml conditioned media were used for each experiment. ICDs were immunoprecipitated with anti-FLAG M2 magnetic beads. Cells from 10 cm dished treated with DMSO or 20 μM LY-411,575 were used for each test.

Assay [3] concerns the target T3, SPPL2b (Homo sapiens, UniProt Q8TCT7).
T3 construct: expressed in transfected cells; host or cells: HEK 293T
T3 sequence (Q8TCT7 26-592): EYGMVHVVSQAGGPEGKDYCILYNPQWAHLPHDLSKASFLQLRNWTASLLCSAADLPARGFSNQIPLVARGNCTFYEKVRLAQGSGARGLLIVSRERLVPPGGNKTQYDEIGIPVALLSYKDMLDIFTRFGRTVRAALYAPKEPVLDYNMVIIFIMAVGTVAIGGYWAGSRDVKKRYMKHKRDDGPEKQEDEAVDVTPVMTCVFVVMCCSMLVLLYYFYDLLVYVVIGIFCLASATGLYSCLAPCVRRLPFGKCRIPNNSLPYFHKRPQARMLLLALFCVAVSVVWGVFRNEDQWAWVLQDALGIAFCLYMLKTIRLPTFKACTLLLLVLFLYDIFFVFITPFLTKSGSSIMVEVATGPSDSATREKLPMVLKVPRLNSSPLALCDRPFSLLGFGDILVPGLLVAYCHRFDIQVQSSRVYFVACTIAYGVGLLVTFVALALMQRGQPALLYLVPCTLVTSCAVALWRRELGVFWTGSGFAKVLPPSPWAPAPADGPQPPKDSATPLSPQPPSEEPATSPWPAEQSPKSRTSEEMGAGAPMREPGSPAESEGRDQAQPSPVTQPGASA
The experiment in a line: FBA/SPPL2b co-transfected HEK 293T cell cleavage assay (Aβ ELISA, Western blot, IP/MS). The format is cell-based.
From the text: as §1, with “Expression constructs in pcDNA6 for COOH-terminal FLAG (DYKDDDDK) and strep (WSHPQFEK) tagged SPPL2a, SPPL2b, hSPP and pSPP were generated as previously described. Untagged” for “Untagged”
as §2, §3
For orientation: An ELISA detects its analyte on a solid surface through an enzyme-linked reagent.

The target of assay [4] is pSPP (Plasmodium falciparum, UniProt Q8IKQ9). Put plainly: FBA/pSPP co-transfected HEK 293T cell cleavage assay (Aβ ELISA, Western blot, IP/MS). The conditions noted are these: for inhibition of xAβ1-25/K16A secretion (in words): 25 μM, ELISA. The format is cell-based, human.
Sequence of pSPP (Q8IKQ9 entry or part of it): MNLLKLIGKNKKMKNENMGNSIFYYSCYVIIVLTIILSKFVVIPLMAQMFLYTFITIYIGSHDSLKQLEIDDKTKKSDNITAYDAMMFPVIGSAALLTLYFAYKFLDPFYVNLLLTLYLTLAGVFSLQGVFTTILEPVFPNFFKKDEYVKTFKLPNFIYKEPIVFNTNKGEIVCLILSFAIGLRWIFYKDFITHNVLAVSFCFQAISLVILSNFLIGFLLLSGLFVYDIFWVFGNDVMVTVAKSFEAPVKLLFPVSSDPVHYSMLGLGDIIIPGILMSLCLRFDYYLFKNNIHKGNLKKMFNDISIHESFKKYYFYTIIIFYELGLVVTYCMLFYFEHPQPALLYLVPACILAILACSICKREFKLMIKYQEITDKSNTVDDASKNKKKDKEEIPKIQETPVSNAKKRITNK
From the text: as §1, with “Expression constructs in pcDNA6 for COOH-terminal FLAG (DYKDDDDK) and strep (WSHPQFEK) tagged SPPL2a, SPPL2b, hSPP and pSPP were generated as previously described. Untagged” for “Untagged”
as §2, §3

In assay [5] the test system is SPP. Details: method as in PMID 15252014, PMID 19337374, PMID 12621027. Conditions: cited from earlier work.
The target of assay [6] is T4, SPPL2a (Homo sapiens, UniProt Q8TCT8).
T4 construct: expressed in transfected cells; host or cells: HEK 293T
T4 sequence (Q8TCT8 26-520): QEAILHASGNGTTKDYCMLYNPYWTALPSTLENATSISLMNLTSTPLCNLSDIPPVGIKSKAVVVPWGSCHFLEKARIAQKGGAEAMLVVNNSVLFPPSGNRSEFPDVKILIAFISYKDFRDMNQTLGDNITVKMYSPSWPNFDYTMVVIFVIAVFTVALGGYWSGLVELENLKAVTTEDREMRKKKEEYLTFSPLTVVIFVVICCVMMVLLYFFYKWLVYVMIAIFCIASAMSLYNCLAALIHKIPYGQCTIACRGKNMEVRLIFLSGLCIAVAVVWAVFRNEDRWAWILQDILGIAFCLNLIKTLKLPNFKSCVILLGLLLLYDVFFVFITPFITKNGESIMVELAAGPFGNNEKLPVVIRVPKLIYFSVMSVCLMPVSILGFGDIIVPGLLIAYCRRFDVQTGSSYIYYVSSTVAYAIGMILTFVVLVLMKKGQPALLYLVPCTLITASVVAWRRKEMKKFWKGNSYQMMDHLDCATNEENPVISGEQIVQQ
Put plainly: FBA/SPPL2a co-transfected HEK 293T cell cleavage assay (Aβ ELISA, Western blot). It is filed as cell-based.
From the text: as §1, with “Expression constructs in pcDNA6 for COOH-terminal FLAG (DYKDDDDK) and strep (WSHPQFEK) tagged SPPL2a, SPPL2b, hSPP and pSPP were generated as previously described. Untagged” for “Untagged”
as §2

The mark [7] stands for this setting: HEK-293T, 25 μM, ELISA, DMSO = 100%, read-out: inhibition of the SPP/SPPLs.
The mark [8] stands for this setting: number in parenthesis in Table 3.
The mark [9] stands for this setting: HEK cells, 24 h, xAβ1-25/K16A by Aβ ELISA, mean ± standard error, read-out: IC50 on FBA/SPPL co-transfected cells.

The values below come from article PMC4457840, “Differential Inhibition of Signal Peptide Peptidase Family Members by Established γ-Secretase Inhibitors” (PLoS ONE, 2015).

Entries after “also recorded” stand apart in the source; their conditions may differ.

For the compound `C[C@H](NC(=O)Cc1cc(F)cc(F)c1)C(=O)N[C@@H]1C(=O)N(C)c2ccccc2-c2ccccc21` [DBZ], the “dose response of P8 fragment stabilization (in words)” value in assay [1] (different doses) was “stabilized the P8 fragment in a dose dependent manner; also recorded: much weaker inhibition”. Further, the “concentration at which effect was first seen” value in assay [1] (dose response) was 1 µM. The “inhibition of xAβ1-25/K16A secretion (in words)” value (shortened to “inhibition … (in words)”) in assay [2] (25 μM, ELISA) was “inhibited; also recorded: selectively inhibit hSPP cleavage”. Besides, in assay [2] (Fig 3C lower panel), the “inhibition of FBA cleavage by Western blot” value is “efficiently inhibited”. Moreover, the IC50 in assay [2] was 948 ± 93 nM. Moreover, the “inhibition of FBA cleavage (10 kD ICD) by Western blot” value in assay [3] (Fig 3C upper panel) is “slightly reduce”.
For the compound `CC(C)C[C@H](NC(=O)[C@H](Cc1ccccc1)C[C@@H](O)[C@H](Cc1ccccc1)NC(=O)OC(C)(C)C)C(=O)N[C@@H](Cc1ccccc1)C(N)=O` [L685,458], the IC50 is 161 ± 97 nM in assay [4], 319 ± 91 nM in assay [2], 876 ± 133 nM in assay [3] (setting [9]) and 570 ± 90 nM in assay [6] (setting [9]). Besides, the inhibition at 25 µM is more than 90% in assay [4] (HEK-293T, read-out: inhibition of the SPP/SPPLs); more than 90% in assay [2] (setting [7]); more than 90% in assay [3] (setting [7]); more than 90% in assay [6] (setting [7]). Besides, the “inhibition … (in words)” value in assay [4] (pSPP) is listed as “largely inhibited”; in assay [2] (25 μM, ELISA), “largely inhibited”; in assay [3] (25 μM, ELISA), “largely inhibited”; in assay [6] (25 μM, ELISA), “largely inhibited”. Also, the “rank order of inhibition” value in assay [4] (pSPP, number in parenthesis in Table 3) came out at 1; in assay [2] (setting [8]), 2; in assay [3] (setting [8]), 1; in assay [6] (setting [8]) it was 3. Also, the “inhibition of SPP activity” value in assay [5] is “inhibit the activity of SPP”.
Consider `O=C(O)c1cc(Oc2ccc([N+](=O)[O-])cc2)cc(Oc2ccc([N+](=O)[O-])cc2)c1` [Comp W, Compound W], for which the “inhibition … (in words)” value was “does not show inhibition” in assay [4] (pSPP); “does not show inhibition” in assay [2] (25 μM, ELISA); “does not show inhibition” in assay [3] (25 μM, ELISA); “does not show inhibition” in assay [6] (25 μM, ELISA).
